# From ChEMBL document CHEMBL3039007, “Structure-based identification of OATP1B1/3 inhibitors” (Mol Pharmacol, 2013)
# Counter-ions that a name gives are not always drawn. Residues, ends and D or L forms follow the SMILES beside them. *: point of attachment. Tfa = O=C(C(F)(F)F)*
# Tests used:
# [1] = target: T1, Solute carrier organic anion transporter family member 1B3 (Homo sapiens, UniProt Q9NPD5); details: chinese hamster, cho, 10 µM
# T1 sequence (Q9NPD5 whole entry): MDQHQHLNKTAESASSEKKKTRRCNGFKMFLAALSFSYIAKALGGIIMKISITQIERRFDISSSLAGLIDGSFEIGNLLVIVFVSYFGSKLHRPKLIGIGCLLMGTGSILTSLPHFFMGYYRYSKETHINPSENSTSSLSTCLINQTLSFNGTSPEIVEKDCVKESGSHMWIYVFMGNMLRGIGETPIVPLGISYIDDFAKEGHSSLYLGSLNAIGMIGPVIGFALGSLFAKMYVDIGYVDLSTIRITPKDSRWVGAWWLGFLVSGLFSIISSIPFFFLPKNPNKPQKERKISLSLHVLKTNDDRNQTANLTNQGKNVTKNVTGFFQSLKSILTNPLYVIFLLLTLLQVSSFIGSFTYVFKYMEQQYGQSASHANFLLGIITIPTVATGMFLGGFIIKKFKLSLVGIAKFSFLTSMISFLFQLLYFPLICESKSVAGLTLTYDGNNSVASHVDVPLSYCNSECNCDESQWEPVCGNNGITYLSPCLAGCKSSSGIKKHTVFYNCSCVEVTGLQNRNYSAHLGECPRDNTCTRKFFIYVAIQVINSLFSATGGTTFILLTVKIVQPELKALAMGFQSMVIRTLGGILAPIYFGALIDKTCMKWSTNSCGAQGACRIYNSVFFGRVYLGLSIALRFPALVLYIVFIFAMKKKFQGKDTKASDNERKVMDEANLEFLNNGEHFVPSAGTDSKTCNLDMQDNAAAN
# [2] = target: T2, Solute carrier organic anion transporter family member 1B1 (Homo sapiens, UniProt Q9Y6L6); details: chinese hamster, cho, 10 µM
# T2 sequence (Q9Y6L6 whole entry): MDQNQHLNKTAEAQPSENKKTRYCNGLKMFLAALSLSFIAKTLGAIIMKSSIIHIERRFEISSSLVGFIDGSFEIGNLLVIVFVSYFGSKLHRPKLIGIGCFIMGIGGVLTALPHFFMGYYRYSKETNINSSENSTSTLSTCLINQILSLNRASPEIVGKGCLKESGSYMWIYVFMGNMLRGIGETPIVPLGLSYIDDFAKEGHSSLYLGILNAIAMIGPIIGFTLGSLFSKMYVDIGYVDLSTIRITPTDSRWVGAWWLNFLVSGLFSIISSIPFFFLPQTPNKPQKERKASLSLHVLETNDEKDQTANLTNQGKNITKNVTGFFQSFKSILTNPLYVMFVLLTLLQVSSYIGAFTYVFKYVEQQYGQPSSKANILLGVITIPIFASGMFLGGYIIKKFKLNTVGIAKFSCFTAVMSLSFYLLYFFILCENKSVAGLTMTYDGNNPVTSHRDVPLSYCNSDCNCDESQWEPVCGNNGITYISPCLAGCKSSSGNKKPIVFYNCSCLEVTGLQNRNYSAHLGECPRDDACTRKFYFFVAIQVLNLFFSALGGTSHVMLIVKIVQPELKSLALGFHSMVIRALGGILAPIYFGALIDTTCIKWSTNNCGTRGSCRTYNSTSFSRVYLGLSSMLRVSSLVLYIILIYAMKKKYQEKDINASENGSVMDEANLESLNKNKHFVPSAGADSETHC
Structure (SMILES),residual activity [1],residual activity [2]
Cn1c(=O)c2[nH]cnc2n(C)c1=O.O [THEOPHYLLINE],72.46%,90.11%
CCCSc1ccc2nc(NC(=O)OC)[nH]c2c1 [ALBENDAZOLE],95.9%,102.7%
CC1=C2C(O)C(=O)OC3CC4C(C)(C)C(=O)C=C[C@]4(C)C(CC1)[C@]23C (stereo partly specified) [MEROGEDUNIN],83.06%,106.3%
"COc1cccc2c1CCC1=CC(=O)CC[C@@]12C [14-METHOXY-4,4-BISNOR-4,8,11,13-PODOCARPATETRAEN-3-ONE]",94.94%,143.1%
Cc1cc(O)c(C)c(O)c1C(=O)O [3-METHYLORSELLINIC ACID],114.8%,116.2%
C=C(C)[C@H]1Cc2c(ccc3c2O[C@@H]2COc4cc(OC)c(OC)cc4[C@@H]2C3=O)O1 [ROTENONE],43.86%,23.22%
"CC1(C)CC2C1CCC1(C)OC2(C)CCC1O (stereo unspecified) [3,7-EPOXYCARYOPHYLLAN-6-OL]",80.05%,57.88%
"O=C(O)CCCCC1CCSS1 (stereo not drawn) [LIPOIC ACID, ALPHA]",103.3%,129.1%
CC(C)[C@H](NC(=O)[C@H](Cc1ccc(O)cc1)NC(=O)[C@@H](NC(=O)C(F)(F)F)C(C)C)C(=O)O [Tfa-VAL-TYR-VAL-OH] (Tfa-Val-Tyr-Val-OH),96.81%,108%
CC1(C)C(=O)C=C[C@@]2(C)C1=C(O)C(=O)[C@]1(C)[C@@H]2CC[C@@]2(C)[C@H](c3ccoc3)C[C@H]3O[C@]321 [CEDRELONE],60.66%,44.73%
C[C@@H]1[C@H]2[C@H](O[C@@H]3O[C@H](CO)[C@@H](O)[C@H](O)[C@H]3O)OC=C(C(=O)O)[C@H]2C[C@@H]1O [LOGANIC ACID],99.49%,49.18%
C#CC1(O)CC[C@H]2[C@@H]3CCC4=CC(=O)CC[C@@H]4[C@H]3CC[C@@]21CC (stereo partly specified) [NORGESTREL],102.9%,90.26%
CS(=O)(=O)c1ccc(C2=C(c3ccccc3)C(=O)OC2)cc1 [ROFECOXIB],84.03%,134.4%
COc1cc2c(cc1OC)-c1cc3ccc(OC)c(OC)c3c[n+]1CC2.[Cl-] [PALMATINE CHLORIDE],97.62%,110.1%
CC1CC(OC(=O)C(O)c2ccccc2)CC(C)(C)N1C.Cl (stereo unspecified) [EUCATROPINE HYDROCHLORIDE],107.8%,84.86%
C=C(C)/C=C1/C=CC(=O)C(C)=C1 [RETUSOQUINONE],92.24%,96.97%
"Oc1ccc([C@H]2Oc3cc(O)cc(O)c3C[C@H]2O)cc1 [EPIAFZELECHIN (2R,3R)(-)]",26.68%,48.25%
CC(=O)N[C@@H](CS)C(=O)O [ACETYLCYSTEINE],89.21%,82.21%
CC[C@@]1(O)C[C@H](O[C@H]2C[C@H](N(C)C)[C@H](O)[C@H](C)O2)c2c(cc3c(c2O)C(=O)c2c(O)cccc2C3=O)[C@H]1C(=O)OC.Cl [AKLAVINE HYDROCHLORIDE],83.91%,70.22%
Cl.N=C(N)NC(=N)Nc1ccccc1 [1-PHENYLBIGUANIDE HYDROCHLORIDE],94.41%,80.12%
CCOP(=S)(OCC)Oc1ccc2c(C)c(Cl)c(=O)oc2c1 [COUMAPHOS],124.8%,99.64%
Cc1ccccc1N1C(=O)c2cc(S(N)(=O)=O)c(Cl)cc2NC1C (stereo unspecified) [METOLAZONE],66.79%,62.42%
CC(=O)O.N=C(N)N/N=C/c1c(Cl)cccc1Cl [GUANABENZ ACETATE],87.6%,90.81%
CC[C@H](C)[C@@H](NC)C(=O)O,105.9%,122.8%

Structure (SMILES),residual activity [1],residual activity [2]
Cc1ccc2cc3c(ccc4ccccc43)c3c2c1CC3 [3-METHYLCHOLANTHRENE],78.58%,86.73%
"Cc1ccc2c(c1)CC[C@H]1CC(=O)CC[C@]21C [13-METHYL-4,4-BISNOR-8,11,13-PODOCARPATRIEN-3-ONE]",93.8%,162.9%
CCC/C=C1\OC(=O)C2=C1CCC=C2 [LIGUSTILIDE],107.5%,117.7%
Cc1cccc(C)c1NC(=O)C1CCCCN1C.Cl (stereo unspecified) [MEPIVACAINE HYDROCHLORIDE],96.16%,96.31%
NC(=O)CN1CCCC1=O,103.1%,88.77%
Clc1ccc(C(c2ccc(Cl)cc2)C(Cl)(Cl)Cl)cc1 [CHLOROPHENOTHANE],116.2%,124.5%
CCOC(=O)n1ccn(C)c1=S [CARBIMAZOLE],101.8%,114.4%
Oc1cc(O)c2c(c1)O[C@H](c1ccc(O)c(O)c1)[C@@H](O)C2 [CIANIDANOL],92.34%,72.87%
NC[C@H]1O[C@H](O[C@H]2[C@H](O)[C@@H](O[C@H]3O[C@H](CO)[C@@H](O)[C@H](N)[C@H]3O)[C@H](N)C[C@@H]2N)[C@H](N)[C@@H](O)[C@@H]1O.O=S(=O)(O)O [BEKANAMYCIN SULFATE],118.1%,101.9%
COc1cc2c(cc1O)C[C@H]1c3c(cc(O)c(OC)c3-2)CCN1C [BOLDINE],100.1%,47.95%
N[C@H](Cc1ccccc1)C(=O)O [D-PHENYLALANINE],84.71%,73.08%
CC1(C)S[C@@H]2[C@H](N3C(=O)[C@@H](c4ccccc4)NC3(C)C)C(=O)N2[C@H]1C(=O)[O-].[K+] [HETACILLIN POTASSIUM],89.09%,81.9%
CC(C)[C@H](N)C(=O)OCCOCn1cnc2c(=O)[nH]c(N)nc21.Cl [VALACYCLOVIR HYDROCHLORIDE],80.91%,68.57%
CC(=O)C1=C(O)C=C2Oc3c(C(C)=O)c(O)c(C)c(O)c3[C@@]2(C)C1=O [(+)-USNIC ACID],69.13%,31.05%
Cc1c(C)c2c(c(C)c1O)CCC(C)(CCCC(C)CCCC(C)CCCC(C)C)O2 (stereo not drawn) [alpha-TOCHOPHEROL],84.17%,85.48%
CN[C@H]1CC[C@@H](c2ccc(Cl)c(Cl)c2)c2ccccc21.Cl [SERTRALINE HYDROCHLORIDE],72.13%,66.16%
CC[C@H](c1ccc(O)cc1)[C@@H](CC)c1ccc(O)cc1 [HEXESTROL],43.21%,46.62%
CC(N)C(=O)OC(C)(C)Cc1ccc(Cl)cc1 (stereo unspecified) [ALAPROCLATE],98.54%,84.52%
CC(=O)Oc1cc(OC(C)=O)c2c(c1)O[C@H](c1ccc(OC(C)=O)c(OC(C)=O)c1)[C@@H](OC(C)=O)C2 [CATECHIN PENTAACETATE],104.9%,82.47%
CC[C@]12CCCN3CCc4c(n(c5ccccc45)C(=O)C1)[C@@H]32 [VINBURNINE],115.3%,97.38%
CO[C@@]1(NC(=O)CSCC#N)C(=O)N2C(C(=O)[O-])=C(CSc3nnnn3C)CS[C@@H]21.[Na+] [CEFMETAZOLE SODIUM],108.6%,123.3%
CC12CC3CC(C)(C1)CC(N)(C3)C2.Cl [MEMANTINE HYDROCHLORIDE],88.95%,88.64%
CC(C)=CCOc1cc2oc(=O)ccc2cc1O [PRENYLETIN],136%,176.8%
COc1ccc(OC)c(C(O)CNC(=O)CN)c1.Cl (stereo unspecified) [MIDODRINE HYDROCHLORIDE],88.99%,101.7%
